Common to all, as to type: in vivo, C57BL/6j mice
The subject of data set [1] is target gene SOD1. The experiment in a line: Test Example 4: lipid conjugated siRNA sequences with different carbon chain lengths, SOD1 in mouse brain, lateral ventricle administration. Further details: Right hemisphere Mean value of inhibition rate / Left hemisphere Mean value of inhibition rate: unit not given here. To be noted: lateral ventricle, 150 μg per mouse, D5; for Left hemisphere Mean value of inhibition rate: left hemisphere (non-administration side); for Right hemisphere Mean value of inhibition rate: right hemisphere (administration side). The method, then:
6-8 Week-old C57BL/6j mice were randomly grouped by body weight. Mice in each group were administered with siRNA by lateral ventricle administration, with an administration dose per mouse depending on a specific test. Taking Bregma in mouse brain as point 0 (origin), coordinates of right ventricle were found using the cerebral stereotaxic apparatus and position was marked on surface of skull (position of lateral ventricle was AP (anteroposterior, bregma anterior and posterior): −0.58 mm, ML (mediolateral, left and right of middle raphe): −1.2 mm, DV (dorsoventral, up and down cerebral dura mater plane): −2.2 mm). A dental electric drill was used to drill in the skull above a position of interest, and then medicament was injected into the lateral ventricle by a micro-dosing pump, wherein a total injection volume was 5 μL, and injection duration was 10 min. Needle was retained for 5 min after completion of injection, and then slowly withdrawn. Afterwards, needle hole was sealed with biomedical glue, and then head skin was adhered. After animals woke up, the animals were returned back to animal house and further fed. PBS control group was administered with the same volume of siRNA-free PBS solution. The day of administration was recorded as 0 day (D0), and the mice were sacrificed at observation point after the administration. Different parts of brain region were respectively taken and stored in the RNAlater.
(§1) RNA extraction: the above tissue samples were taken out from the RNAlater, and smashed for 60 s in Tissuelyser type II full-automatic tissue homogenizer, and total RNAs of various tissue samples were extracted using the full-automatic nucleic acid extraction instrument and the nucleic acid extraction kit from Zhejiang Hanwei Science and Technology Co. Ltd. according to methods described in instructions.
(§2) Reverse transcription reaction: 1 μg of the extracted total RNAs of the tissue samples were taken, and configured into 20 μL of reverse transcription system according to a method described in kit instructions by using a reverse transcription kit (Reverse Transcription System, A3500) from Promega Corporation and selecting Oligo (dT)15 reverse transcription primers, and the reverse transcription reaction was completed. After the reaction was ended, 80 μL of RNase-Free water was added into the reverse transcription system to provide cDNA solution for Real-time PCR detection.
(§3) Real-time PCR detection: 20 μL of Real-time PCR reaction system per PCR detection well was configured according to a method described in kit instructions using SYBR™ Select Master Mix (Catalog number: 4472908) reagent from ABI company. Each detection system contained 5 μL of cDNA template obtained from the above reverse transcription reaction, 10 μL of SYBR™ Select Master Mix, 0.5 μL of 10 μM upstream primers, 0.5 μL of 10 μM downstream primers, and 4 μL of RNase-Free H2O. The configured reaction system was subjected to Real-time PCR amplification on ABI StepOnePlus PCR instrument by a three-step method, wherein an amplification procedure was pre-denaturation at 95° C. for 10 min, then denaturation at 95° C. for 30 s, annealing at 60° C. for 30 s, and extension at 72° C. for 30 s; and processes of denaturation, annealing, and extension were repeated for 40 cycles. Gene expression differences were calculated by the ΔΔCt method after completion of the procedure.
In the real-time fluorescence quantitative PCR method, relative quantitative calculation of remaining expression level and inhibition rate of gene mRNA of interest in various test groups was performed by the ΔΔCt method, and the calculation method is as follows: […]

Data set [2] deals with target gene SOD1. Description: Test Example 8: inhibitory activity on target gene SOD1 in adipose tissues in different parts of mice. Particulars: tail vein injection 5 mg/kg, D14; for Subcutaneous fat % Mean value of inhibition rate: abdominal subcutaneous fat. The method, then: as §1, §2, §3
(§4) In the real-time fluorescence quantitative PCR method, relative quantitative calculation of remaining expression level and inhibition rate of gene mRNA of interest in various test groups was performed by the ΔΔCt method, and the calculation method is as follows:
The present test example evaluated, by an evaluation method for inhibitory activity on a target gene in mice, the inhibitory activity of siRNA sequence RZ899090 with the sense strand with the NM073 conjugation at Position 4, siRNA sequence RZ899091 with the sense strand with the NM074 conjugation at Position 4, siRNA sequence RZ899078 with the sense strand with the NM202 conjugation at Position 6 and siRNA reference sequence RZ899093 with the sense strand with the Uhd conjugation at Position 4, siRNA reference sequence RZ899076 with the sense strand with the NM200 conjugation at Position 4 on the target gene SOD1 in adipose tissues of interest in mice.
(§5) 6-8 Week-old C57BL/6j mice were randomly grouped by body weight, 5 per group, 6 groups in total. Mice in each group were dosed with the above siRNA conjugates by tail vein injection, with an administration dose of 5 mg/kg per mouse, and an administration volume of 150 μL. PBS control group was administered with the same volume of siRNA conjugate-free PBS solution. The day of administration was recorded as D0, and 5 mice in each group were sacrificed on D14 after administration. Paragonadal fat, abdominal subcutaneous fat, and brown fat on back were respectively taken. RNA extraction, reverse transcription, and real-time fluorescence quantitative detection were performed on various tissues according to the above method, and gene expression differences were calculated by the above ΔΔCt method.

In data set [3] the test system is target gene SOD1. Description: Test Example 9: inhibitory activity of lipid conjugated siRNA sequences on SOD1 in mouse muscle tissues. To be noted: D14; for Diaphragm % Mean value of inhibition rate / Heart % Mean value of inhibition rate / Left quadriceps muscle % Mean value of inhibition rate: tail vein injection 5 mg/kg; for Left quadriceps muscle % Mean value of inhibition rate: left hind leg quadriceps muscle. The protocol: as §1, §2, §3, §4
The present test example evaluated, by an evaluation method for inhibitory activity on a target gene in mice, the inhibitory activity of siRNA sequence RZ899090 with the sense strand with the NM073 conjugation at Position 4, siRNA sequence RZ899091 with the sense strand with the NM074 conjugation at Position 4, siRNA sequence RZ899078 with the sense strand with the NM202 conjugation at Position 6 and siRNA reference sequence RZ899093 with the sense strand with the Uhd conjugation at Position 4, siRNA reference sequence RZ899076 with the sense strand with the NM200 conjugation at Position 4 on the target gene SOD1 of interest in muscle tissues in different parts of mice.
as §5, with “Tissues such as left hind leg quadriceps muscle, diaphragm,” for “Paragonadal fat, abdominal subcutaneous fat,”, “heart tissues” for “brown fat on back”, “taken and stored in the RNAlater.” for “taken.”

The results in this text go back to patent publication US20260132165A1, “MODIFIED NUCLEOSIDE ANALOGUE AND USE THEREOF, AND NUCLEOSIDE ANALOGUE-CONTAINING DOUBLE-STRANDED OLIGONUCLEOTIDE AND USE THEREOF” (RIGERNA THERAPEUTICS (BEIJING) CO., LTD., priority 2023, published 2026).

Strand notation (5' to 3'): a small letter for the sugar, then the base; units joined by * are phosphorothioate-linked, units joined directly phosphodiester-linked; [ ] holds rarer units or linkages, { } end groups; capitals alone tell only the bases. [Uhd] = commercial lipid-conjugated uridine analogue Uhd (C16), from Hongene, reference; {VP} = (thio)vinylphosphonate on the antisense 5' nucleotide, as listed; e = 2'-O-(2-methoxyethyl) (MOE); m = 2'-O-methyl; f = 2'-fluoro

Take “RZ899078: siRNA sequence with the sense strand with the NM202 (C22) conjugation at Position 6; SEQ ID NO: 20 / 24 (sense UUUUANUCCUCACUCUAAA; antisense UUUAGAGUGAGGAUUAAAAUG; NM202 (C22) conjugate at sense position 6; modified_base 1..2 OTHER; 2'-methoxy and 5'-thiophosphate modified nucleotides; modified_base 3..5 OTHER; 2'-methoxy modified nucleotides; modified_base 6 OTHER; n is the synthetic nucleotide analog NM202 as described in the disclosure.; modified_base 7..10 OTHER; 2'-fluoro modified nucleotides; modified_base 11..19 OTHER; modified_base 1 OTHER; 2'-methoxy and 5'-thiovinylphosphonate modified nucleotide; modified_base 2 OTHER; 2'-fluoro and 5'-thiophosphate modified nucleotide; modified_base 6 OTHER;)”: in data set [1], the “Left hemisphere Mean value of inhibition rate” value is listed as 30.24 and the “Right hemisphere Mean value of inhibition rate” value stood at 52.15. Besides, in data set [2], the “Subcutaneous fat % Mean value of inhibition rate” value turned out to be 71.42%, the “Brown fat on back % Mean value of inhibition rate” value is on record as 67.27% and the “Paragonadal fat % Mean value of inhibition rate” value amounted to 55.23%. Also, in data set [3], the “Diaphragm % Mean value of inhibition rate” value is on record as 47.67%, the “Heart % Mean value of inhibition rate” value is on record as 68.69% and the “Left quadriceps muscle % Mean value of inhibition rate” value amounted to 32.10%. In data set [3] (heart tissues, tail vein 5 mg/kg), the “inhibitory activity compared with the NM200 conjugated reference sequence RZ899076” value is recorded as “superior inhibitory activity”. Moreover, the “inhibitory action on the left quadriceps muscle and diaphragm” value in data set [3] (left quadriceps muscle and diaphragm, tail vein 5 mg/kg) is listed as “certain inhibitory action”.
As for “RZ899093: siRNA reference sequence with the sense strand with the Uhd (C16) conjugation at Position 4; SEQ ID NO: 13 / 23 (sense mU*mU*mU[Uhd]mAmAfUfCfCfUmCmAmCmUmCmUmAmAmA; antisense {VP}-mU*fU*mUmAmGfAmGmUmGmAmGfGmAfUeUfAmAmAmA*mU*mG) [reference compound]”, in data set [1], the “Left hemisphere Mean value of inhibition rate” value was found to be 70.23 and the “Right hemisphere Mean value of inhibition rate” value worked out at 80.47. Moreover, in data set [2], the “Subcutaneous fat % Mean value of inhibition rate” value amounted to 85.92%, the “Brown fat on back % Mean value of inhibition rate” value was 77.13% and the “Paragonadal fat % Mean value of inhibition rate” value came out at 76.20%. Also, in data set [3], the “Diaphragm % Mean value of inhibition rate” value is 64.76%, the “Heart % Mean value of inhibition rate” value was 51.52% and the “Left quadriceps muscle % Mean value of inhibition rate” value is given as 56.55%.
For “RZ899076: siRNA reference sequence with the sense strand with the NM200 (C22) conjugation at Position 4; SEQ ID NO: 18 / 24 (sense UUUNAAUCCUCACUCUAAA; antisense UUUAGAGUGAGGAUUAAAAUG; NM200 (C22) conjugate at sense position 4; modified_base 1..2 OTHER; 2'-methoxy and 5'-thiophosphate modified nucleotides; modified_base 3 OTHER; 2'-methoxy modified nucleotide; modified_base 4 OTHER; n is the synthetic nucleotide analog NM200 as described in the disclosure.; modified_base 5..6 OTHER; 2'-methoxy modified nucleotides; modified_base 7..10 OTHER; 2'-fluoro modified nucleotides; modified_base 11..19 OTHER; 2'-methoxy modified ; modified_base 1 OTHER; 2'-methoxy and 5'-thiovinylphosphonate modified nucleotide; modified_base 2 OTHER; 2'-fluoro and 5'-thiophosphate modified …) [reference compound]”, in data set [1], the “Left hemisphere Mean value of inhibition rate” value is 65.25 and the “Right hemisphere Mean value of inhibition rate” value was determined as 79.02. For the same substance, in data set [2], the “Subcutaneous fat % Mean value of inhibition rate” value was determined as 76.03%, the “Brown fat on back % Mean value of inhibition rate” value is 80.80% and the “Paragonadal fat % Mean value of inhibition rate” value worked out at 56.52%. Further, in data set [3], the “Diaphragm % Mean value of inhibition rate” value is 74.58%, the “Heart % Mean value of inhibition rate” value came out at 51.69% and the “Left quadriceps muscle % Mean value of inhibition rate” value is recorded as 60.97%.
